Laboratory results from patent publication US4619925A, “3-Propenyl cephalosporin derivatives” (priority 1985, dated 1986).
Converted amounts (≈) assume the structure as drawn. Read-outs that look alike come from different tables or passages of the source.

Assays:
Mouse urinary recovery = format: in vivo, mice; conditions: mouse, urine, po, 20 mg/kg; for dose excreted at 24 h: p.o.
S. aureus Smith = assay: MIC, agar dilution technique (Mueller-Hinton Agar); format: cell-based; conditions: Staphylococcus aureus, Gp-Ia, penicillin sensitive, read-out: Minimum Inhibitory Concentration
From the text: (§1) Each of these groups of organisms is constituted of five individual strains of microorganism. The Gp-Ia organisms are Gram-positive staphylococci which are sensitive to penicillin. The Gp-Ib organisms are Gram-positive staphylococci which are resistant to penicillin and produce penicillinase. The Gn-Ia organisms are Gram-negative bacteria which are sensitive to ampicillin and cephalothin. The Gn-Ib organisms are Gram-negative bacteria which are resistant to ampicillin and cephalothin.

S. aureus A9497 = assay: MIC, agar dilution technique (Mueller-Hinton Agar); format: cell-based; conditions: Staphylococcus aureus, Gp-Ia, penicillin sensitive, read-out: Minimum Inhibitory Concentration
From the text: as §1

S. aureus A9602 = assay: MIC, agar dilution technique (Mueller-Hinton Agar); format: cell-based; conditions: Staphylococcus aureus; S. aureus A9602; Gp-Ib, penicillin resistant; read-out: Minimum Inhibitory Concentration
From the text: as §1

P. mirabilis A9554 = assay: MIC, agar dilution technique (Mueller-Hinton Agar); format: cell-based; conditions: Proteus mirabilis; P. mirabilis A9554; Gn-Ia, ampicillin and cephalothin sensitive; read-out: Minimum Inhibitory Concentration
From the text: as §1

S. aureus No. 193 = assay: MIC, agar dilution technique (Mueller-Hinton Agar); format: cell-based; conditions: Staphylococcus aureus, Gp-Ib, penicillin resistant, read-out: Minimum Inhibitory Concentration
From the text: as §1

P. mirabilis A9900 = assay: MIC, agar dilution technique (Mueller-Hinton Agar); format: cell-based; conditions: Proteus mirabilis; P. mirabilis A9900; Gn-Ia, ampicillin and cephalothin sensitive; read-out: Minimum Inhibitory Concentration
From the text: as §1

E coli RGN-823 = assay: MIC, agar dilution technique (Mueller-Hinton Agar); format: cell-based; conditions: Escherichia coli, RGN823, Gn-Ib, ampicillin and cephalothin resistant, read-out: Minimum Inhibitory Concentration
From the text: as §1

E. coli A9660 = assay: MIC, agar dilution technique (Mueller-Hinton Agar); format: cell-based; conditions: Escherichia coli; E. coli A9660; Gn-Ia, ampicillin and cephalothin sensitive; read-out: Minimum Inhibitory Concentration
From the text: as §1

K. pneumoniae A20346 = assay: MIC, agar dilution technique (Mueller-Hinton Agar); format: cell-based; conditions: Klebsiella pneumoniae; K. pneumoniae A20346; Gn-Ib, ampicillin and cephalothin resistant; read-out: Minimum Inhibitory Concentration
From the text: as §1

S. aureus Terajima = assay: MIC, agar dilution technique (Mueller-Hinton Agar); format: cell-based; conditions: Staphylococcus aureus, Gp-Ia, penicillin sensitive, read-out: Minimum Inhibitory Concentration
From the text: as §1

K. pneumoniae A20345 = assay: MIC, agar dilution technique (Mueller-Hinton Agar); format: cell-based; conditions: Klebsiella pneumoniae, Gn-Ib, ampicillin and cephalothin resistant, read-out: Minimum Inhibitory Concentration
From the text: as §1

K. pneumoniae D11 = assay: MIC, agar dilution technique (Mueller-Hinton Agar); format: cell-based; conditions: Klebsiella pneumoniae; K. pneumoniae D11; Gn-Ia, ampicillin and cephalothin sensitive; read-out: Minimum Inhibitory Concentration
From the text: as §1

E. coli A20341-1 = assay: MIC, agar dilution technique (Mueller-Hinton Agar); format: cell-based; conditions: Escherichia coli, A203411; E. coli A20341-1; Gn-Ib, ampicillin and cephalothin resistant; read-out: Minimum Inhibitory Concentration
From the text: as §1

S. aureus BX-1633-2 = assay: MIC, agar dilution technique (Mueller-Hinton Agar); format: cell-based; conditions: Staphylococcus aureus, BX16332; S. aureus BX-1633-2; Gp-Ib, penicillin resistant; read-out: Minimum Inhibitory Concentration
From the text: as §1

S. aureus A9534 = assay: MIC, agar dilution technique (Mueller-Hinton Agar); format: cell-based; conditions: Staphylococcus aureus, Gp-Ia, penicillin sensitive, read-out: Minimum Inhibitory Concentration
From the text: as §1

E. coli Juhl = assay: MIC, agar dilution technique (Mueller-Hinton Agar); format: cell-based; conditions: Escherichia coli; E. coli Juhl; Gn-Ia, ampicillin and cephalothin sensitive; read-out: Minimum Inhibitory Concentration
From the text: as §1

E. coli A15148 = assay: MIC, agar dilution technique (Mueller-Hinton Agar); format: cell-based; conditions: Escherichia coli; E. coli A15148; Gn-Ib, ampicillin and cephalothin resistant; read-out: Minimum Inhibitory Concentration
From the text: as §1

S. aureus Russell = assay: MIC, agar dilution technique (Mueller-Hinton Agar); format: cell-based; conditions: Staphylococcus aureus; S. aureus Russell; Gp-Ib, penicillin resistant; read-out: Minimum Inhibitory Concentration
From the text: as §1

S. aureus A15092 = assay: MIC, agar dilution technique (Mueller-Hinton Agar); format: cell-based; conditions: Staphylococcus aureus, Gp-Ib, penicillin resistant, read-out: Minimum Inhibitory Concentration
From the text: as §1

S. aureus A9601 = assay: MIC, agar dilution technique (Mueller-Hinton Agar); format: cell-based; conditions: Staphylococcus aureus; S. aureus A9601; Gp-Ia, penicillin sensitive; read-out: Minimum Inhibitory Concentration
From the text: as §1

H. influenzae A22157 = assay: In vitro activity against fastidious bacteria; format: cell-based; conditions: Haemophilus influenzae, ampicillin-resistant (ABPC-R)
From the text: (§2) Table 5 contains comparative data for in vitro antibacterial activity against fastidious bacteria.

S. pyogenes Dick = assay: In vitro activity against fastidious bacteria; format: cell-based; conditions: Streptococcus pyogenes; S. pyogenes Dick; read-out: MIC
From the text: as §2

N. gonorrheae A20155 = assay: In vitro activity against fastidious bacteria; format: cell-based; conditions: N. gonorrheae A20155; read-out: MIC
From the text: as §2

[1] = test system: Gn-Ia organisms (Gram-negative bacteria sensitive to ampicillin and cephalothin); assay: In vitro activity, agar dilution, group of five strains; format: cell-based
From the text: as §1

Mouse blood levels = conditions: mouse; for half-life: T 1/2
From the text: Table 3 contains comparative blood level data for mice treated orally and intramuscularly with the hydroxyphenylglycyl derivatives.

C/C=C\C1=C(C(=O)O)N2C(=O)C(NC(=O)[C@H](N)c3ccc(O)cc3)[C@H]2SC1 (stereo partly drawn) [BMY-28100, 7-[D-2-amino-2-(4-hydroxyphenyl)acetamido]-3-[(Z)-1-propen-1-yl]-3-cephem-4-carboxylic acid]
dose excreted at 2 h (Mouse urinary recovery; 0-2 hr): 60% | dose excreted at 4 h (Mouse urinary recovery; 2-4 hr): 5.3% | dose excreted at 6 h (Mouse urinary recovery; 4-6 hr): 1.3% | dose excreted at 24 h (Mouse urinary recovery; 6-24 hr, read-out: Mouse urinary recovery 6-24 hr): 2.3% | dose excreted at 24 h (Mouse urinary recovery; total, read-out: Mouse urinary recovery Total): 69% | MIC (S. aureus Smith): 0.4 µg/mL (≈ 1.03 µM) | MIC (S. aureus A9497): 0.4 µg/mL (≈ 1.03 µM) | MIC (S. aureus A9602): 0.8 µg/mL (≈ 2.05 µM) | MIC (P. mirabilis A9554): 0.8 µg/mL (≈ 2.05 µM) | MIC (S. aureus No. 193): 1.6 µg/mL (≈ 4.11 µM) | MIC (P. mirabilis A9900): 0.8 µg/mL (≈ 2.05 µM) | MIC (E coli RGN-823): > 50 µg/mL | MIC (E. coli A9660): 0.8 µg/mL (≈ 2.05 µM) | MIC (K. pneumoniae A20346): 25 µg/mL (≈ 64.2 µM) | MIC (S. aureus Terajima): 0.4 µg/mL (≈ 1.03 µM) | MIC (K. pneumoniae A20345): 6.3 µg/mL (≈ 16.2 µM) | MIC (K. pneumoniae D11): 0.8 µg/mL (≈ 2.05 µM) | MIC (E. coli A20341-1): 25 µg/mL (≈ 64.2 µM) | MIC (S. aureus BX-1633-2): 0.8 µg/mL (≈ 2.05 µM) | MIC (S. aureus A9534): 0.4 µg/mL (≈ 1.03 µM) | MIC (E. coli Juhl): 1.6 µg/mL (≈ 4.11 µM) | MIC (E. coli A15148): 50 µg/mL (≈ 128 µM) | MIC (S. aureus Russell): 0.8 µg/mL (≈ 2.05 µM) | MIC (S. aureus A15092): 1.6 µg/mL (≈ 4.11 µM) | MIC (S. aureus A9601): 0.8 µg/mL (≈ 2.05 µM) | MIC (H. influenzae A22157): 0.8 µg/mL (≈ 2.05 µM) | MIC (S. pyogenes Dick): 0.05 µg/mL (≈ 0.128 µM) | MIC (N. gonorrheae A20155): 0.8 µg/mL (≈ 2.05 µM) | activity relative to cephalexin and cefaclor [1]: more active than cephalexin and slightly better than cefaclor | concentration at 10 min (Mouse blood levels; blood, im, 20 mg/kg): 14000 ng/mL | concentration at 20 min (Mouse blood levels; blood, im, 20 mg/kg): 15000 ng/mL | concentration at 0.5 h (Mouse blood levels; blood, im, 20 mg/kg): 12000 ng/mL | concentration at 40 min (Mouse blood levels; blood, im, 20 mg/kg): 8500 ng/mL | concentration at 50 min (Mouse blood levels; blood, im, 20 mg/kg): 7500 ng/mL | concentration at 1 h (Mouse blood levels; blood, im, 20 mg/kg): 5400 ng/mL | concentration at 1.5 h (Mouse blood levels; blood, im, 20 mg/kg): 2500 ng/mL | concentration at 2 h (Mouse blood levels; blood, im, 20 mg/kg): 1600 ng/mL | concentration at 0.5 h (Mouse blood levels; blood, po, 20 mg/kg): 9300 ng/mL | concentration at 1 h (Mouse blood levels; blood, po, 20 mg/kg): 6900 ng/mL | concentration at 2 h (Mouse blood levels; blood, po, 20 mg/kg): 4200 ng/mL | concentration at 3 h (Mouse blood levels; blood, po, 20 mg/kg): 2500 ng/mL | concentration at 4 h (Mouse blood levels; blood, po, 20 mg/kg): 970 ng/mL | concentration at 5 h (Mouse blood levels; blood, po, 20 mg/kg): 810 ng/mL | concentration at 6 h (Mouse blood levels; blood, po, 20 mg/kg): 650 ng/mL | concentration at 7 h (Mouse blood levels; blood, po, 20 mg/kg): 340 ng/mL | concentration at 0.5 h (Mouse blood levels; blood, po, 100 mg/kg): 33000 ng/mL | concentration at 1 h (Mouse blood levels; blood, po, 100 mg/kg): 17000 ng/mL | concentration at 2 h (Mouse blood levels; blood, po, 100 mg/kg): 6500 ng/mL | concentration at 3 h (Mouse blood levels; blood, po, 100 mg/kg): 4500 ng/mL | concentration at 4 h (Mouse blood levels; blood, po, 100 mg/kg): 3300 ng/mL | concentration at 5 h (Mouse blood levels; blood, po, 100 mg/kg): 2700 ng/mL | concentration at 6 h (Mouse blood levels; blood, po, 100 mg/kg): 2500 ng/mL | concentration at 7 h (Mouse blood levels; blood, po, 100 mg/kg): 1700 ng/mL | AUC (Mouse blood levels; in vivo, im, 20 mg/kg): 13000 ng·h/mL | half-life (Mouse blood levels; in vivo, im, 20 mg/kg): 0.52 h | Cmax (Mouse blood levels; in vivo, po, 20 mg/kg): 12000 ng/mL | T 1/2 (Mouse blood levels; in vivo, po, 20 mg/kg): 2.3 h | AUC (Mouse blood levels; in vivo, po, 20 mg/kg): 20000 ng·h/mL | half-life (Mouse blood levels; in vivo, po, 20 mg/kg): 1.4 h | AUC (Mouse blood levels; in vivo, po, 100 mg/kg): 51000 ng·h/mL | half-life (Mouse blood levels; in vivo, po, 100 mg/kg): 2.1 h
